The conditions of series [1]: cited from earlier work.
Series [2] has as its system P-gp (human MDR1). As to the kind of experiment: in vitro. The note with it: pig.
Series [3] in a line: in vitro. The following applies: pig; for recovery at 2 h, 2 µM: pH 7.4.
Protocol: (§1) Cells were passaged at 80−90% confluence (every 2−3 days) using trypsin-EDTA solution. […] The culture medium was replaced every other day, including 200 µL culture medium in the apical and 850 µL cell culture medium in the basolateral side. LLC-PK1 MOCK cells were used at passages of 3−30. LLC-PK1-MDR1 cells were cultured and passaged in the same manner as LLC-PK1 cells except at the density of 1 × 10^4 cells per well. LLC-PK1-MDR1 cells were used at passages of 3−25. For LLC-PK1 MOCK cells and LLC-PK1-MDR1 cells, the experiments were performed on the 4th and 7th day after seeding.
(§2) Samples were collected from the donor well at the start of the incubation (50 µL) as C0, and from the donor and receiver wells at the end of the incubation (50 µL). All samples were stored at - 40 °C for LC-MS/MS analysis.
(§3) Bidirectional transport experiments. […] The transwell experiments were conducted following above-mentioned procedure. […] When the recovery rate of the tested drug is below 80%, the possibility of intracellular accumulation should be considered. The polycarbonate (PC) membrane where cells are grown should be carefully peeled off from the cell culture medium and placed in 100 µL of HBSS buffer solution. […] The process was carried out on ice to prevent heat-induced degradation, applying a power in the range of 300 W for a total duration of 20 minutes. Thereafter, a quantitative analysis of the intracellular drug was conducted, and the drug recovery rate was recalculated based on this analysis.
(§4) The apparent permeability coefficient (Papp, cm/s) was calculated for each transport direction, A-B and B-A, using the following equation: Papp=dQ/dt×1/A×C0 where dQ/dt is the permeation rate (µmol/s), A is the surface area of the insert (0.33 cm^2, Corning), and C0 is the initial donor concentration (µM).
(§5) The efflux ratio (ER) is calculated as the ratio of Papp (B-A)/Papp (A-B). Recovery=TRcumrf+Cdf×VD/Cdi×VD×100% Where TRcumrf is the cumulative transported mass in the receiver chamber at the end of the incubation (nmol), Cdf is the concentration of the drug in the donor chamber at the end of the incubation (μM), VD is the volume of the donor chamber (mL), and Cdi is the initial concentration of the drug in the donor chamber (μM).
(§6) The method of the bidirectional transport experiment was the same as before.
In series [4] the test system is P-gp (human MDR1). As to the kind of experiment: Bidirectional transport across LLC-PK1-MDR1 monolayer stably expressing human MDR1 (P-gp) (Transwell).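 Also: 2 h incubation at 37 °C, receiver HBSS with 10 mM Hepes plus 1% BSA, LC-MS/MS of donor and receiver, recovery as receiver plus donor amount over initial donor amount.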 The note with it: pig, LLC-PK1, pH 7.4.
Series [5] is described as follows: Bidirectional transport across LLC-PK1 MOCK monolayer (Transwell).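 Also: compound quantified by LC-MS/MS in donor and receiver wells, efflux ratio as B-A over A-B Papp, recovery relative to initial donor amount.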 The following applies: pig.
Protocol: as §1, §2, §3, §4, §5, §6
The mark [6] stands for this setting: LLC-PK1 MOCK cell monolayer (Transwell).
Where [7] appears, read: LLC-PK1, pH 7.4, Papp A-B, LLC-PK1 MOCK, 2 µM, 2 h, mean ± s, n = 3, BLQ = below 2 nM.

Read-outs that look alike come from different tables or passages of the source.

The term Papp B→A denotes how fast a substance crosses the layer from the basolateral side. Usually Papp A→B stands for the apparent permeability from the apical to the basolateral side of a cell layer. For `Nc1c2c(nc3ccccc13)CCCC2` [Tacrine], the “Kp, Brain” value in series [1] (rat, in vivo) is 9.56. In addition, in series [1] (rat, in vivo), the “Kp,uu,Brian” value was 0.78. The apparent permeability from basolateral to apical (Papp B→A) at 2 h, 2 µM came out at 34.1 ± 2.16 ×10⁻⁶ cm/s in series [2] (LLC-PK1, pH 7.4) and 27.2 ± 2.27 ×10⁻⁶ cm/s in series [3] (LLC-PK1, pH 7.4). Also, the recovery at 2 h, 2 µM in series [2] (LLC-PK1, pH 7.4) was 105 ± 4.23%; in series [3], 114 ± 3.02%. In addition, the apical-to-basolateral permeability (Papp A→B) at 2 h, 2 µM in series [2] (LLC-PK1, pH 7.4, Papp A-B) was 23.6 ± 1.1 ×10⁻⁶ cm/s; in series [3] (LLC-PK1, pH 7.4, Papp A-B) it was 30.9 ± 1.76 ×10⁻⁶ cm/s.

`Nc1nnc(-c2cccc(Cl)c2Cl)c(N)n1` [Lamotrigine]: in series [1] (ref Fridén [2009]), the “Kp, Brain” value is 2.02 and the “Kp,uu,Brian” value was 0.880.

In general, efflux ratio refers to a quotient of directional permeabilities that is used to spot active efflux. On to `COc1ccc2c(c1)c(CC(=O)O)c(C)n2C(=O)c1ccc(Cl)cc1` [Indomethacin], for which, in series [1] (ref Fridén [2009]), the “Kp, Brain” value is listed as 0.01 and the “Kp,uu,Brian” value is given as 0.11. In series [4], the Papp A→B at 2 h, 2 µM was determined as 14.9 ± 1.29 ×10⁻⁶ cm/s; the basolateral-to-apical permeability (Papp B→A) at 2 h, 2 µM came out at 20.3 ± 2.74 ×10⁻⁶ cm/s; the efflux ratio at 2 h, 2 µM was 1.36. In series [2] (LLC-PK1, pH 7.4), this compound displayed a recovery at 2 h, 2 µM of 99.7 ± 4.24%. The compound also had a recovery at 2 h, 2 µM in series [3] (setting [6]) of 109 ± 5.97%. In addition, in series [5] (LLC-PK1, pH 7.4), the apparent permeability from basolateral to apical (Papp B→A) at 2 h, 2 µM turned out to be 18.9 ± 0.31 ×10⁻⁶ cm/s and the efflux ratio at 2 h, 2 µM stood at 1.18. Moreover, in series [5] (setting [7]), the apparent permeability from apical to basolateral (Papp A→B) at 2 h, 2 µM was determined as 16.1 ± 2.07 ×10⁻⁶ cm/s.

As to `CCC1(c2cnc[nH]2)Cc2ccccc2C1` [Atipamezole], in series [1] (ref Li [2019]), the “Kp, Brain” value is reported as 4.40 and the “Kp,uu,Brian” value is 1.700. Also, in series [4], the Papp A→B at 2 h, 2 µM amounted to 33.7 ± 5.21 ×10⁻⁶ cm/s and the basolateral-to-apical permeability (Papp B→A) at 2 h, 2 µM was 27.6 ± 1.5 ×10⁻⁶ cm/s. This compound gave an apparent permeability from basolateral to apical (Papp B→A) at 2 h, 2 µM in series [5] (LLC-PK1, pH 7.4) of 30.2 ± 4.52 ×10⁻⁶ cm/s. In series [5] (setting [7]), this compound registered an apparent permeability from apical to basolateral (Papp A→B) at 2 h, 2 µM of 33.9 ± 1.72 ×10⁻⁶ cm/s.

With `CN(C)CCOC(c1ccccc1)c1ccccc1` [Diphenhydramine], in series [3] (setting [6]), the recovery at 2 h, 2 µM came to 101 ± 7.46%.

Turning to `CC(C)NCC(O)COc1cccc2ccccc12` (stereo not shown) [Propranolol], the “Kp, Brain” value in series [1] (ref Fridén [2009]) was 16.37. Also, the “Kp,uu,Brian” value in series [1] (ref Fridén [2009]) is listed as 0.61. In addition, the apical-to-basolateral permeability (Papp A→B) at 2 h, 2 µM is 16.8 ± 0.09 ×10⁻⁶ cm/s in series [4] and 22.8 ± 2.13 ×10⁻⁶ cm/s in series [5] (setting [7]). Further, the apparent permeability from basolateral to apical (Papp B→A) at 2 h, 2 µM came out at 16.1 ± 1.46 ×10⁻⁶ cm/s in series [4] and 20.1 ± 0.71 ×10⁻⁶ cm/s in series [5] (LLC-PK1, pH 7.4). Moreover, the efflux ratio at 2 h, 2 µM in series [4] came out at 0.96; in series [5] (LLC-PK1, pH 7.4), 0.88. Moreover, the recovery at 2 h, 2 µM in series [2] (LLC-PK1, pH 7.4) came to 80.7 ± 1.03%; in series [3] (setting [6]) it was 90.9 ± 7.14%.

On to `C=C[C@H]1C[N@@]2CC[C@H]1C[C@@H]2[C@@H](O)c1ccnc2ccc(OC)cc12` [Quinidine], for which the “Kp, Brain” value in series [1] (ref Nicolaï [2020]) is on record as 0.32. In addition, the “Kp,uu,Brian” value in series [1] (ref Nicolaï [2020]) is 0.036. For the same compound, the Papp A→B at 2 h, 2 µM stood at 2.48 ± 1.06 ×10⁻⁶ cm/s in series [4] and 23.4 ± 0.37 ×10⁻⁶ cm/s in series [5] (setting [7]). Also, the apparent permeability from basolateral to apical (Papp B→A) at 2 h, 2 µM in series [4] turned out to be 42.9 ± 2.11 ×10⁻⁶ cm/s; in series [5] (LLC-PK1, pH 7.4) it was 17.2 ± 2.85 ×10⁻⁶ cm/s. The recovery at 2 h, 2 µM in series [2] (LLC-PK1, pH 7.4) stood at 98.7 ± 14.8%; in series [3] (setting [6]), 99.1 ± 15.6%.

Consider `COc1cccc(C2(O)CCCCC2CN(C)C)c1` (stereo not shown) [Tramadol], for which, in series [1] (ref Fridén [2009]), the “Kp, Brain” value was 5.29 and the “Kp,uu,Brian” value was 1.46. Moreover, in series [4], the apical-to-basolateral permeability (Papp A→B) at 2 h, 2 µM turned out to be 26.3 ± 1.05 ×10⁻⁶ cm/s; the Papp B→A at 2 h, 2 µM is 25.2 ± 1.1 ×10⁻⁶ cm/s; the efflux ratio at 2 h, 2 µM worked out at 0.96. This compound also had a recovery at 2 h, 2 µM in series [2] (LLC-PK1, pH 7.4) of 109 ± 2.73%. In series [3], this compound showed a recovery at 2 h, 2 µM of 113 ± 3.59%. In series [5] (LLC-PK1, pH 7.4), the apical-to-basolateral permeability (Papp A→B) at 2 h, 2 µM turned out to be 27.3 ± 0.2 ×10⁻⁶ cm/s; the basolateral-to-apical permeability (Papp B→A) at 2 h, 2 µM worked out at 23.3 ± 1.43 ×10⁻⁶ cm/s; the efflux ratio at 2 h, 2 µM is 0.85.

Regarding `CC(NC(C)(C)C)C(=O)c1cccc(Cl)c1` (stereo not shown) [Bupropion], in series [1] (ref Fridén [2009]), the “Kp, Brain” value is listed as 9.78 and the “Kp,uu,Brian” value is listed as 2.000. For the same compound, in series [4], the Papp A→B at 2 h, 2 µM was 26.6 ± 2.58 ×10⁻⁶ cm/s and the Papp B→A at 2 h, 2 µM is 19.5 ± 1 ×10⁻⁶ cm/s. For the same compound, the Papp B→A at 2 h, 2 µM in series [5] (LLC-PK1, pH 7.4) turned out to be 23.8 ± 0.67 ×10⁻⁶ cm/s. In series [5] (setting [7]), the apical-to-basolateral permeability (Papp A→B) at 2 h, 2 µM was 27.3 ± 2.88 ×10⁻⁶ cm/s.

Values taken from paper PMC12667295, “A surrogate barrier model for high-throughput blood-brain barrier permeability prediction: integrating LLC-PK1-MOCK/MDR1 Cells and lysosomal trapping correction” (Drug Delivery, 2025).
